Source: patent US10689354B2, “Aminoazole derivative” (Teijin Pharma Limited, priority 2015, dated 2020)

Molecular target: T1, androgen receptor (AR-LBD) (Rattus norvegicus, UniProt P15207)
T1 construct: 5 μL of 2×AR-LBD/Fluoromone AL Red Complex contained in the kit; purchased Invitrogen
T1 sequence (P15207 651-882 limits assumed): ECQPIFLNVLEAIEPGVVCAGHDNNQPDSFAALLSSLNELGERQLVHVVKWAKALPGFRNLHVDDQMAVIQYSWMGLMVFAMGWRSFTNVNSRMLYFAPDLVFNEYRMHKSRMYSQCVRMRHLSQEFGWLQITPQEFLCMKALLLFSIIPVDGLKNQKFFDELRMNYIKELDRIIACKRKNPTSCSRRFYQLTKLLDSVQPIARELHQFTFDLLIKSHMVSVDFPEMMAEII
Experiment: Evaluation of androgen receptor affinity (PolarScreen Androgen Receptor Competitor Assay Kit, Red; fluorescence polarization)
Settings: 22° C. for 5 hours, relative to binding rate of 1 μM DHT, read-out: AR affinity (pEC50) (converted)
In short: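 Duplicate wells; compound plus AR-LBD tracer complex incubated 22° C for 5 h, then FP measured. Effect compared with 1 μM DHT; 50%-effect concentration expressed as pEC50.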

SMILES	EC50 [nM]
Cc1sc(N(CC2CCC2)c2ccc(C#N)cc2)nc1C(=O)NS(C)(=O)=O [Compound 440, 2-[4-cyano-N-(cyclobutylmethyl)anilino]-5-methyl-N-methylsulfonyl-thiazole-4-carboxamide]	501
Cc1sc(N(CCc2cccc3ccccc23)c2ccc(C#N)cc2)nc1C(=O)NS(C)(=O)=O [Compound 441, 2-[4-cyano-N-[2-(1-naphthyl)ethyl]anilino]-5-methyl-N-methylsulfonyl-thiazole-4-carboxamide]	251
COC(C)(C)CCN(c1ccc(C#N)cc1)c1nc(C(=O)NS(C)(=O)=O)c(C)s1 [Compound 444, 2-(4-cyano-N-(3-methoxy-3-methyl-butyl)anilino)-5-methyl-N-methylsulfonyl-thiazole-4-carboxamide]	1260
Cc1cc(CN(c2ccc(C#N)cc2)c2nc(C(=O)NS(C)(=O)=O)c(C)s2)no1 [Compound 445, 2-[4-cyano-N-[(5-methylisoxazol-3-yl)methyl]anilino]-5-methyl-N-methylsulfonyl-thiazole-4-carboxamide]	631
CC[C@H](C)CN(c1ccc(C#N)cc1)c1nc(C(=O)NS(C)(=O)=O)c(C)s1 [Compound 446, 2-(4-cyano-N-[(2S)-2-methylbutyl]anilino)-5-methyl-N-methylsulfonyl-thiazole-4-carboxamide]	316
C=CCCN(c1ccc(C#N)cc1)c1nc(C(=O)NS(C)(=O)=O)c(C)s1 [Compound 448, 2-(N-but-3-enyl-4-cyano-anilino)-5-methyl-N-methylsulfonyl-thiazole-4-carboxamide]	1260
Cc1sc(N(CCOC(C)C)c2ccc(C#N)cc2)nc1C(=O)NS(C)(=O)=O [Compound 449, 2-[4-cyano-N-(2-isopropoxyethyl)anilino]-5-methyl-N-methylsulfonyl-thiazole-4-carboxamide]	398
Cc1sc(N(CCn2ccnc2)c2ccc(C#N)cc2)nc1C(=O)NS(C)(=O)=O [Compound 458, 2-[4-cyano-N-(2-imidazol-1-ylethyl)anilino]-5-methyl-N-methylsulfonyl-thiazole-4-carboxamide]	> 2000
Cc1sc(N(Cc2nc3ccccc3[nH]2)c2ccc(C#N)cc2)nc1C(=O)NS(C)(=O)=O [Compound 460, 2-[N-(1H-benzimidazol-2-ylmethyl)-4-cyano-anilino]-5-methyl-N-methylsulfonyl-thiazole-4-carboxamide]	1260
Cc1sc(N(Cc2ccccc2)CC(O)c2ccccc2)nc1C(=O)NS(C)(=O)=O (stereo not drawn) [Compound 462, 2-[benzyl-(2-hydroxy-2-phenyl-ethyl)amino]-5-methyl-N-methylsulfonyl-thiazole-4-carboxamide]	1260
Cc1sc(N(c2ccc(C#N)cc2)[C@H](CO)c2ccccc2)nc1C(=O)NS(C)(=O)=O [Compound 467, 2-(4-cyano-N-[(1S)-2-hydroxy-1-phenyl-ethyl]anilino)-5-methyl-N-methylsulfonyl-thiazole-4-carboxamide]	> 2000
Cc1sc(N(CC(O)c2ccccc2)c2ccc(C#N)cc2)nc1C(=O)NS(C)(=O)=O (stereo not drawn) [Compound 468, 2-(4-cyano-N-(2-hydroxy-2-phenyl-ethyl)anilino)-5-methyl-N-methylsulfonyl-thiazole-4-carboxamide]	> 2000
Cc1sc(N(CCc2cccc(N(C)C)c2)c2ccc(C#N)cc2)nc1C(=O)NS(C)(=O)=O [Compound 475, 2-[4-cyano-N-[2-[3-(dimethylamino)phenyl]ethyl]anilino]-5-methyl-N-methylsulfonyl-thiazole-4-carboxamide]	794
Cc1sc(N(C[Si](C)(C)c2ccccc2)c2ccc(C#N)cc2)nc1C(=O)NS(C)(=O)=O [Compound 477, 2-[4-cyano-N-[[dimethyl(phenyl)silyl]methyl]anilino]-5-methyl-N-methylsulfonyl-thiazole-4-carboxamide]	> 2000
Cc1sc(N(CCc2ccc(N(C)C)cc2)c2ccc(C#N)cc2)nc1C(=O)NS(C)(=O)=O [Compound 480, 2-[4-cyano-N-[2-[4-(dimethylamino)phenyl]ethyl]anilino]-5-methyl-N-methylsulfonyl-thiazole-4-carboxamide]	> 2000
Cc1sc(N(CCC2CCCN2C)c2ccc(C#N)cc2)nc1C(=O)NS(C)(=O)=O (stereo not drawn) [Compound 481, 2-[4-cyano-N-[2-(1-methylpyrrolidin-2-yl)ethyl]anilino]-5-methyl-N-methylsulfonyl-thiazole-4-carboxamide]	> 2000
Cc1sc(N(c2ccc(C#N)cc2)[C@@H](CO)c2ccccc2)nc1C(=O)NS(C)(=O)=O [Compound 483, 2-(4-cyano-N-[(1R)-2-hydroxy-1-phenyl-ethyl]anilino)-5-methyl-N-methylsulfonyl-thiazole-4-carboxamide]	> 2000

SMILES	EC50 [nM]
Cc1sc(N(Cc2ncccc2OCc2ccccc2)c2ccc(C#N)cc2)nc1C(=O)NS(C)(=O)=O [Compound 490, 2-[N-[(3-benzyloxy-2-pyridyl)methyl]-4-cyano-anilino]-5-methyl-N-methylsulfonyl-thiazole-4-carboxamide]	> 2000
Cc1sc(N(Cc2ccc(OC(F)(F)F)cc2)c2ccc(C#N)cc2)nc1C(=O)NS(=O)(=O)CCCN1CCOCC1 [Compound 541, 2-[4-cyano-N-[[4-(trifluoromethoxy)phenyl]methyl]anilino]-5-methyl-N-(3-morpholinopropylsulfonyl)thiazole-4-carboxamide]	> 2000
Cc1sc(N(Cc2ccc(OCCO)cc2)c2ccc(C#N)cc2)nc1C(=O)NS(C)(=O)=O [Compound 569, 2-[4-cyano-N-[[4-(2-hydroxyethoxy)phenyl]methyl]anilino]-5-methyl-N-methylsulfonyl-thiazole-4-carboxamide]	631
Cc1sc(N(Cc2ccc(OCC(=O)N(C)C)cc2)c2ccc(C#N)cc2)nc1C(=O)NS(C)(=O)=O [Compound 570, 2-[4-cyano-N-[[4-[2-(dimethylamino)-2-oxo-ethoxy]phenyl]methyl]anilino]-5-methyl-N-methylsulfonyl-thiazole-4-carboxamide]	1260
Cc1sc(N(Cc2ccc(OCCN3CCOCC3)cc2)c2ccc(C#N)cc2)nc1C(=O)NS(C)(=O)=O [Compound 572, 2-[4-cyano-N-[[4-(2-morpholinoethoxy)phenyl]methyl]anilino]-5-methyl-N-methylsulfonyl-thiazole-4-carboxamide]	1580
Cc1sc(N(Cc2ccc(OCC(=O)N3CCOCC3)cc2)c2ccc(C#N)cc2)nc1C(=O)NS(C)(=O)=O [Compound 573, 2-[4-cyano-N-[[4-(2-morpholino-2-oxo-ethoxy)phenyl]methyl]anilino]-5-methyl-N-methylsulfonyl-thiazole-4-carboxamide]	1260
CNC(=O)COc1ccc(CN(c2ccc(C#N)cc2)c2nc(C(=O)NS(C)(=O)=O)c(C)s2)cc1 [Compound 574, 2-[4-cyano-N-[[4-[2-(methylamino)-2-oxo-ethoxy]phenyl]methyl]anilino]-5-methyl-N-methylsulfonyl-thiazole-4-carboxamide]	> 2000
Cc1sc(N(Cc2ccc(OCCN3CCCC3=O)cc2)c2ccc(C#N)cc2)nc1C(=O)NS(C)(=O)=O [Compound 575, 2-[4-cyano-N-[[4-[2-(2-oxopyrrolidin-1-yl)ethoxy]phenyl]methyl]anilino]-5-methyl-N-methylsulfonyl-thiazole-4-carboxamide]	398
Cc1sc(N(Cc2ccc(OCCCN3CCCC3=O)cc2)c2ccc(C#N)cc2)nc1C(=O)NS(C)(=O)=O [Compound 578, 2-[4-cyano-N-[[4-[3-(2-oxopyrrolidin-1-yl)propoxy]phenyl]methyl]anilino]-5-methyl-N-methylsulfonyl-thiazole-4-carboxamide]	794
Cc1sc(N(Cc2cccc(OCCO)c2)c2ccc(C#N)cc2)nc1C(=O)NS(C)(=O)=O [Compound 587, 2-[4-cyano-N-[[3-(2-hydroxyethoxy)phenyl]methyl]anilino]-5-methyl-N-methylsulfonyl-thiazole-4-carboxamide]	501
CS(=O)(=O)NC(=O)c1nc(N(Cc2ccccc2)c2ccc(C#N)cc2)sc1-c1ccccc1 [Compound 601, 2-(N-benzyl-4-cyano-anilino)-N-methylsulfonyl-5-phenyl-thiazole-4-carboxamide]	> 2000
Cc1sc(N(Cc2ccccc2)c2ccc(C#N)cn2)nc1C(=O)NS(C)(=O)=O [Compound 602, 2-[benzyl-(5-cyano-2-pyridyl)amino]-5-methyl-N-methylsulfonyl-thiazole-4-carboxamide]	501
Cc1sc(N(Cc2ccccc2)c2ccc(C#N)nc2)nc1C(=O)NS(C)(=O)=O [Compound 604, 2-[benzyl-(6-cyano-3-pyridyl)amino]-5-methyl-N-methylsulfonyl-thiazole-4-carboxamide]	> 2000
Cc1sc(N(Cc2ccccc2)c2cccc(CCO)c2)nc1C(=O)NS(C)(=O)=O [Compound 605, 2-[N-benzyl-3-(2-hydroxyethyl)anilino]-5-methyl-N-methylsulfonyl-thiazole-4-carboxamide]	> 2000
Cc1sc(N(Cc2ccccc2)c2ccccc2CO)nc1C(=O)NS(C)(=O)=O [Compound 606, 2-[N-benzyl-2-(hydroxymethyl)anilino]-5-methyl-N-methylsulfonyl-thiazole-4-carboxamide]	> 2000
Cc1oc(N(Cc2ccc(C#N)cc2)c2ccc(C#N)cc2)nc1C(=O)NS(C)(=O)=O [Compound 615, 2-[4-cyano-N-[(4-cyanophenyl)methyl]anilino]-5-methyl-N-methylsulfonyl-oxazole-4-carboxamide]	398
